Key:
[1] = Half-life in human liver microsomes (HLM); assay type: in vitro ADME; conditions: human, human liver microsomes (HLM, HL101), pH 7.4; 1 μM compound, 0.78 mg/mL HLM, 37° C., NADPH
Method: Test compounds (1 μM) were incubated with 3.3 mM MgCl2 and 0.78 mg/mL HLM (HL101) in 100 mM potassium phosphate buffer (pH 7.4) at 37° C. on the 96-deep well plate. The reaction mixture was split into two groups, a non-P450 and a P450 group. NADPH was only added to the reaction mixture of the P450 group. An aliquot of samples of P450 group was collected at 0, 10, 30, and 60 min time point, where 0 min time point indicated the time when NADPH was added into the reaction mixture of P450 group. An aliquot of samples of non-P450 group was collected at −10 and 65 min time point. Collected aliquots were extracted with acetonitrile solution containing an internal standard. The precipitated protein was spun down in centrifuge (2000 rpm, 15 min). The compound concentration in supernatant was measured by LC/MS/MS system.
The half-life value was obtained by plotting the natural logarithm of the peak area ratio of compounds/internal standard versus time. The slope of the line of best fit through the points yields the rate of metabolism (k). This was converted to a half-life value using following equations:
Exemplary compounds of the invention were tested (1 μM), and were incubated with 3.3 mM MgCl2 and 0.78 mg/mL HLM (HL101) in 100 mM potassium phosphate buffer (pH 7.4) at 37° C. on the 96-deep well plate. The reaction mixture was split into two groups, a non-P450 and a P450 group. NADPH was only added to the reaction mixture of the P450 group. An aliquot of samples of the P450 group was collected at 0, 10, 30, and 60 minute time points, where the 0 minute time point indicated the time when NADPH was added into the reaction mixture of the P450 group. An aliquot of samples of the non-P450 group was collected at −10 and 65 minute time points. Collected aliquots were extracted with an acetonitrile solution containing an internal standard. The precipitated protein was spun down in a centrifuge (2000 rpm, 15 rain). The compound concentration in supernatant was measured by LC/MS/MS system. The half-life value (T1/2) was obtained by plotting the natural logarithm of the peak area ratio of compounds/internal standard versus time. The slope of the line of best fit through the points yields the rate of metabolism (k). This was converted to a half-life value using following equations: Half-life=ln 2/k.

[2] = target: T1, VR1 receptor (Rattus norvegicus, UniProt O35433); assay: Calcium imaging assay in DRG neurons, capsaicin stimulus; assay type: cell-based; conditions: for inhibition of the Capsaicin induced intracellular calcium response (FIG. 1): 3 nM compound, DRG neurons
T1 construct: endogenous in cells; host or cells: dorsal root ganglion (DRG) neurons
T1 sequence (O35433 whole entry): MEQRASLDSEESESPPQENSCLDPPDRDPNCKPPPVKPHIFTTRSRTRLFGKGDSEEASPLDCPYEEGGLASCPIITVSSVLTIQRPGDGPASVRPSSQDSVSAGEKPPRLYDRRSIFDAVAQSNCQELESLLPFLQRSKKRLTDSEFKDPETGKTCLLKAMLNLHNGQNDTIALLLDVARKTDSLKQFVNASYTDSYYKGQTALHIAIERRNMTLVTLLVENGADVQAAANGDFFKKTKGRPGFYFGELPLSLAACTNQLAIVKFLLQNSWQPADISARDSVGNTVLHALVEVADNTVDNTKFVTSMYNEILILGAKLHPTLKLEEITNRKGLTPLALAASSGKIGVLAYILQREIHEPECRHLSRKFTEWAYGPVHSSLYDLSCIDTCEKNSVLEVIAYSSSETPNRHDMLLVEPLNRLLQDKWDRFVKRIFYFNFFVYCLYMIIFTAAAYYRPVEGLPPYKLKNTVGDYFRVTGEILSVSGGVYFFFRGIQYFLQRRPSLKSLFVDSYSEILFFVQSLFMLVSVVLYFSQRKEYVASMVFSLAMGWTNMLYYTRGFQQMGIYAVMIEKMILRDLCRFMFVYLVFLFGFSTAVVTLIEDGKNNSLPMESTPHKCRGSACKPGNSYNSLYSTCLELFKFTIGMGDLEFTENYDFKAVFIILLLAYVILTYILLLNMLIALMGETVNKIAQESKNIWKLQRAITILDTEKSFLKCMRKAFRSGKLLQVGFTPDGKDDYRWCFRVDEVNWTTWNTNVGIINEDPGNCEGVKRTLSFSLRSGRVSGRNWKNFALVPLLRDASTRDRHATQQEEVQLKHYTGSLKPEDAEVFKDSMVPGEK
Method: Therefore the functional activity of compounds at the VR1 receptor may be determined by measuring changes in intracellular calcium levels in neurons such as the dorsal root ganglion. […] Prior to assay, cells were loaded with 5 μg/ml Fura2 in normal saline solution at 37° C. for 40 minutes. Cells were then washed with normal saline to remove dye before commencement of the experiment. The plated neurons were transferred into a chamber on the stage of a Nikon eclipse TE300 microscope after which neurons were allowed to attain a stable fluorescence for about 10 minutes before beginning the experiment. The assay consists of two stages, a pretreatment phase followed by a treatment phase. First, a solution of the test compound was added from a multivalve perfusion system to the cells for 1 minute (pretreatment). […] Fura2 was excited at 340 and 380 nm to indicate relative calcium ion concentration. Changes in wavelength measurements were made throughout the course of the experiment. The fluorescence ratio was calculated by dividing fluorescence measured at 340 nm by that at 380 nm. Data were collected using Intelligent Imaging's Slidebook software.

[3] = target: T2, VR1 (Homo sapiens, UniProt Q8NER1); assay: Acid stimulation assay (FDSS 6000); assay type: cell-based; design: host or cells: unspecified cell suspension; conditions: final assay buffer pH5.8, 15 min pre-incubation
Method: The Acid-induced changes in the intracellular calcium concentration were monitored using FDSS 6000 (Hamamatsu Photonics, Japan), a fluorometric imaging system. The cell suspension in resting buffer (HBSS supplemented with […], pH 7.4) was pre-incubated with varying concentrations of the test compounds or resting buffer (buffer control) for 15 minutes at room temperature under dark conditions. The cells were automatically added the stimulating solution (HBSS supplemented with MES, final assay buffer pH5.8) by the FDSS 6000.
Target sequence in this assay (Q8NER1 whole entry, species assumed): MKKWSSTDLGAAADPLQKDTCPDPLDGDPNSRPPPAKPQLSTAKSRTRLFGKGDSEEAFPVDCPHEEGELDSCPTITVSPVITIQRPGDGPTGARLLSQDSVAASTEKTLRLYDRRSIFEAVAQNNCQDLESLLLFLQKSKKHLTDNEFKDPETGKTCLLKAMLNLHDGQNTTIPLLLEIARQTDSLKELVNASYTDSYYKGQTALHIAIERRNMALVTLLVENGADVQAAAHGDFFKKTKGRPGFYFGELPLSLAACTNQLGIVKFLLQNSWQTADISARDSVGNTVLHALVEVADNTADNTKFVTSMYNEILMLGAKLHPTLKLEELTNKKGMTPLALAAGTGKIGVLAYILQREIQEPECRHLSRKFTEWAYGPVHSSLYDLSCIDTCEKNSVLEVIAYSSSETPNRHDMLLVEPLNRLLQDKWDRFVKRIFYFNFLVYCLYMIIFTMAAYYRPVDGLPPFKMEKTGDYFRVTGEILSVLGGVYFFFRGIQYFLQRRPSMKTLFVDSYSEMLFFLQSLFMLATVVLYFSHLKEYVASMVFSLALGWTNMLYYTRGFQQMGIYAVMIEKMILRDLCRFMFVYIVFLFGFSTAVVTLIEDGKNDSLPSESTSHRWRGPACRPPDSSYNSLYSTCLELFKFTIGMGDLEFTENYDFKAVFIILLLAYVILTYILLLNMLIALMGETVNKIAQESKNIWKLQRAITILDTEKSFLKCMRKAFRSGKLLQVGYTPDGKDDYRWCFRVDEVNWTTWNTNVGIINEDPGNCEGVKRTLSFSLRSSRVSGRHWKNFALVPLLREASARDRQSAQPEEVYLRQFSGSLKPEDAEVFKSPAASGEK

[4] = target: T2, VR1; assay: Calcium uptake assay, low pH (proton) stimulus; assay type: cell-based; design: expressed in transfected cells; host or cells: T-REx HEK 293 (Invitrogen), pcDNA5/TO vector; conditions: HEK293; 0.3 μM compound; low pH agonist; HEK 293 cells expressing hVR1; read-out: Low pH % Inhib. @ 0.3 μM
Target sequence in this assay (Q8NER1 whole entry): as the sequence (Q8NER1 whole entry, species assumed) above

[5] = target: T2, VR1; assay: Calcium uptake assay, capsaicin stimulus; assay type: cell-based; design: expressed in transfected cells; host or cells: T-REx HEK 293 (Invitrogen), pcDNA5/TO vector; conditions: 3 nM compound
Target sequence in this assay (Q8NER1 whole entry): as the sequence (Q8NER1 whole entry, species assumed) above

In the case of `Cc1cc(/C=C/C(F)(F)F)ccc1C(=O)Nc1ccc2sc(CO)nc2c1` [Compound 225], the half-life at 1 μM [1] is reported as 3.26 h, the “inhibition of the Capsaicin induced intracellular calcium response (FIG. 1)” value [2] is reported as “significant inhibition” and the “inhibition of the Capsaicin induced intracellular calcium response (FIG. 1)” value ([2]; listed as compound 225) is reported as “reduced”. It also gave an inhibition at 0.003 µM ([2]; DRG neuron, read-out: % inhibition of capsaicin induced calcium influx) of over 75%, an IC50 [3] of 0.9 nM and an inhibition at 0.3 µM [4] of 110%.
Work on `C/C(=C\C(F)(F)F)c1ccc(C(=O)Nc2ccc3c(c2)OCCN3)cc1` [Compound 96] yielded a half-life at 1 μM [1] of 0.34 h, an IC50 [3] of 3 nM and an inhibition at 0.3 µM [4] of 99%. For the same compound, the “inhibition of the Capsaicin induced intracellular calcium response (FIGS. 2-6)” value [5] was “significant inhibition”.

— US20080300243A1, “Amide Derivatives as Ion-Channel Ligands and Pharmaceutical Compositions and Methods of Using the Same” (priority 2005, published 2008)
